Like-named read-outs stand apart in the source and are kept apart here.
Assays:
native 5-HT2A receptor [1] = molecular target: T1, native 5-HT2A receptor (Rattus norvegicus, UniProt P14842); assay type: cell-based; details: 10 μM 5-HT
T1 construct: expressed in transfected cells; host or cells: COS-7

[2] = molecular target: T2, cys→lys mutant 5-HT2A receptor (Rattus norvegicus, UniProt P14842, C322K); assay type: binding; design: expressed in transfected cells; host or cells: COS-7; details: for change in binding affinity at the mutant 5-HT2A receptor: cys→lys mutant versus native, 3H-ketanserin
Experimental: Saturation experiments were performed by using [^3 H]ketanserin (0.1-5.0 nM).

5-HT2C receptor = assay type: binding, rat; details: COS-7; native versus ser→lys and ser→phe mutant
native 5-HT2A receptor [3] = molecular target: T1, native 5-HT2A receptor; assay type: binding; details: 3H-ketanserin saturation
Experimental: (§1) Bmax values were determined by a BCA assay.
(§2) BMAX values were determined by a BCA assay.

[4] = molecular target: T2, cys→lys mutant 5-HT2A receptor; details: saturation analysis
Experimental: as §1, §2

[5] = system: 5-HT2A cys→lys mutant receptor; details: inverse agonism; for reduction of constitutively activated IP basal activity: mutated 5-HT2A cys→lys receptor
[6] = system: basal levels of IP production; assay type: cell-based, rat; details: COS-7, no agonist

T2 sequence (P14842 whole entry C322K): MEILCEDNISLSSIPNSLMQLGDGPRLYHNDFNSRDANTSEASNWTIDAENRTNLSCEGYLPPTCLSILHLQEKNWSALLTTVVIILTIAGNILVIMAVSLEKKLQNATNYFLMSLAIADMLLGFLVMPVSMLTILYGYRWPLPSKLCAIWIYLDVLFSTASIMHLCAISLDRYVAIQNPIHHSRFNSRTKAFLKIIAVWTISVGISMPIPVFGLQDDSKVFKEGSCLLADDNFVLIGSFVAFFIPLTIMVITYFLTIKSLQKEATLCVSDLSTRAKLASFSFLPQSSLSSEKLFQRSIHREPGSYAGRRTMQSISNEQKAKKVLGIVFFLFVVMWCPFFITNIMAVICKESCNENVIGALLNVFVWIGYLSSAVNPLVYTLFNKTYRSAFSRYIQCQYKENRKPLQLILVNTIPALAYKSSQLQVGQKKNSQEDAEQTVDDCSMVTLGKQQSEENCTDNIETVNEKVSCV
T1 sequence (P14842 whole entry): as the sequence (P14842 whole entry C322K) above, with K322C counted along it

Molecule: NCCc1c[nH]c2ccc(O)cc12 [5-HT, serotonin]
- additional increase in IP production upon addition of 5-HT (native 5-HT2A receptor [1]): additional increase in IP production

Molecule: COc1cc(CC(C)N)c(OC)cc1C (stereo not shown) [DOM]
- fold increase in affinity (Ki) ([2]; cys→lys mutant versus native 5-HT2A receptor): 5 fold

Molecule: CN1C[C@@H](NS(=O)(=O)N(C)C)C[C@@H]2c3cccc4c3c(cn4C)C[C@H]21 [^3 H-mesulergine]
- 5-HT2C receptor density (3H-mesulergine saturation) (5-HT2C receptor): greater in cells transfected with native receptors than in cells transfected with either the ser→lys or the ser→phe mutant receptors

Molecule: O=C(c1ccc(F)cc1)C1CCN(CCn2c(=O)[nH]c3ccccc3c2=O)CC1 [^3 H-ketanserin]
- BMAX (native 5-HT2A receptor [3]): 193 ± 37 fmol/mg
- KD of 3H-ketanserin, native versus mutant [4]: did not differ between the native and mutant receptors

Molecule: COc1cc(CC(C)N)c(OC)cc1Br (stereo not shown) [DOB]
- fold increase in affinity (Ki) ([2]; rat, cos-7 cells): 7.4 fold

Molecule: CN1CCN2c3ccccc3Cc3ccccc3C2C1 (stereo not shown) [mianserin]
- change in binding affinity at the mutant 5-HT2A receptor [2]: apparent decease in the binding affinity

Molecule: O=C(c1ccc(F)cc1)C1CCN(CCn2c(=O)[nH]c3ccccc3c2=O)CC1 [ketanserin]
- change in binding affinity at the mutant 5-HT2A receptor [2]: no change in binding affinity
- decrease of the constitutive IP stimulation ([5]; COS-7, 5-HT2A cys→lys receptor): 80%

Molecule: CN1CCN(C2=Nc3ccccc3Oc3ccc(Cl)cc32)CC1 [loxapine]
- reduction of constitutively activated IP basal activity [5]: reduce the constitutively activated IP basal activity

Molecule: O=C(CCCN1CCC2(CC1)C(=O)NCN2c1ccccc1)c1ccc(F)cc1 [spiperone]
- change in binding affinity at the mutant 5-HT2A receptor [2]: no change in binding affinity
- reduction of constitutively activated IP basal activity [5]: reduce the constitutively activated IP basal activity

B1: ser→phe mutant 5-HT2C receptors: rat 5-HT2C receptor with serine #312 mutated to phenylalanine (protein, UniProt P08909 33-460, looked up, variant S312F)
5-hydroxytryptamine receptor …: IVTDTFNSSDGGRLFQFPDGVQNWPALSIVVIIIMTIGGNILVIMAVSMEKKLHNATNYFLMSLAIADMLVGLLVMPLSLLAILYDYVWPLPRYLCPVWISLDVLFSTASIMHLCAISLDRYVAIRNPIEHSRFNSRTKAIMKIAIVWAISIGVSVPIPVIGLRDESKVFVNNTTCVLNDPNFVLIGSFVAFFIPLTIMVITYFLTIYVLRRQTLMLLRGHTEEELANMSLNFLNCCCKKNGGEEENAPNPNPDQKPRRKKKEKRPRGTMQAINNEKKAFKVLGIVFFVFLIMWCPFFITNILSVLCGKACNQKLMEKLLNVFVWIGYVCSGINPLVYTLFNKIYRRAFSKYLRCDYKPDKKPPVRQIPRVAATALSGRELNVNIYRHTNERVARKANDPEPGIEMQVENLELPVNPSNVVSERISSV
- fold increase in basal levels of IP production compared with cells expressing native 5-HT2C receptors [6]: 2 fold

Reference: patent publication US6255089A (priority 1998, dated 2001)
